# From US6002008A, “Substituted 3-cyano quinolines” (American Cyanamid Company, priority 1998, dated 1999)
# pIC50: −log10 of the molar value.
# How the values were obtained:
# [1] = target: gastric (H^+ /K^+)-ATPase (Sus scrofa, UniProt P19156); conditions: Ife R. J., et al., J. Med. Chem., 35(18), 3413 (1992); cited from earlier work
# [2] = target: recombinant human MEK 1 (MAPKK) and recombinant human ERK2 (MAPK); assay: Mitogen Activated Protein Kinase (MAPK) Assay, coupled MEK/ERK; assay type: biochemical; conditions: separate entries = evaluated more than once
# Procedure: To evaluate inhibitors of the MAP (mitogen activated protein) kinase a two component coupled standard pharmacological test procedure, which measures phosphorylation of a serine/threonine residue in an appropriate sequence in the substrate in the presence and absence of a putative inhibitor, was used. Recombinant human MEK 1 (MAPKK) was first used to activate recombinant human ERK2 (MAPK) and the activated MAPK (ERK) was incubated with substrate (MBP peptide or MYC peptide) in the presence of ATP, Mg^+2 and radiolabeled ^33 P ATP. The phosphorylated peptide was captured on a P 81 phosphocellulose filter (paper filter or embedded in microtiter plate) washed and counted by scintillation methods.
# The peptide substrates used in the assay are MBP, peptide substrate ([sequence]), or synthetic Myc substrate, ([sequence].cndot.5 TFA. The recombinant enzymes used were prepared as GST fusion proteins of human ERK 2 and human MEK 1. Inhibitor samples were prepared as 10× stocks in 10% DMSO and an appropriate aliquot was used to deliver either 10 ug/ml for a single point screening dose or 100, 10, 1, and 0.1 uM final concentration for a dose response curve. Final DMSO concentrations were less than or equal to 1%.
# The reaction was run as follows in 50 mM Tris kinase buffer, pH 7.4 in a reaction volume of 50 ul. The appropriate volume of kinase buffer and inhibitor sample was added to the tube. Appropriate dilution of enzyme was delivered to give 2-5 ug recombinant MAPK (Erk) per tube. The inhibitor was incubated with MAPK (Erk) for min at 0 deg. […] Recombinant Mek (MAPKK) (0.5-2.5 ug) or fully activated Mek (0.05-0.1 units) was added to activate the Erk and incubated for 30 min at 30° C. […] Samples were incubated at 30° C. for 30 minutes and the reaction was stopped by adding 25 μl of ice cold 10% TCA After samples were chilled on ice for 30 min, 20 μl of sample was transferred onto P 81 phosphocellulose filter paper or appropriate MTP with embedded P 81 filter. Filter papers or MTP were washed 2 times with a large volume of 1% acetic acid, then 2 times with water. The filters or MTP were briefly air dried before addition of scintillant and samples were counted in the appropriate scintillation counter set up for reading ^33 P isotope.
# The raw data was captured as cpm. Sample replicates were averaged and corrected for background count. Mean cpm data was tabulated by group and % inhibition by a test compound was calculated as (corrected cpm control-corrected. cpm sample/control)×100=% inhibition.
# HL60 = assay: Inhibition of cancer cell growth as measured by cell number; assay type: cell-based, human; conditions: HL60, 48 hours
# Source text: (§1) The cell lines were chosen since they overexpressed epidermal growth factor receptor (EGFR) (i.e. A431) or HER2/neu (SKBR3), or had little to no expression of the these receptors (SW620, LOX, MCF7).
# [3] = target: T1, Epidermal Growth Factor Receptor Kinase (His-tagged cytoplasmic domain of EGFR) (Homo sapiens, UniProt P00533); assay: Inhibition of Epidermal Growth Factor Receptor Kinase (EGF-R) using recombinant enzyme; assay type: biochemical; conditions: average of number of tests, RR-SRC peptide
# T1 construct: EGFR cDNA encoding amino acids 645-1186 preceded by Met-Ala-(His)6; made in house; host or cells: Sf9 insect cells, baculovirus vHcEGFR52
# Procedure: Representative compounds of the invention were evaluated for their ability to inhibit the phosphorylation of the tyrosine residue of a peptide substrate catalyzed by the enzyme epidermal growth factor receptor kinase. […] The enzyme used in this assay is the His-tagged cytoplasmic domain of EGFR. A recombinant baculovirus (vHcEGFR52) was constructed containing the EGFR cDNA encoding amino acids 645-1186 preceded by Met-Ala-(His)6. Sf9 cells in 100 mm plates were infected at an moi of 10 pfu/cell and cells were harvested 48 h post infection. A cytoplasmic extract was prepared using 1% Triton X-100 and applied to Ni-NTA column. After washing the column with 20 mM imidazole, HcEGFR was eluted with 250 mM imidazole (in 50 mM NaHPO4, pH 8.0, 300 mM NaCl). […]
# Compounds to be evaluated were made into 10 mg/mL stock solutions in 100% dimethylsulfoxide (DMSO). […]
# For the enzyme reaction, 10 μL of each inhibitor (at various concentrations) were added to each well of a 96-well plate. […] The filter discs were washed 2× with 0.5% phosphoric acid and radioactivity was measured using a liquid scintillation counter.
# The % inhibition of the test compound was determined for at least three different concentrations and the IC50 value was evaluated from the dose response curve. […]
# [4] = target: T2, Kinase insert Domain containing Receptor (KDR; the catalytic domain of the VEGF receptor) (Homo sapiens, UniProt P35968); assay: Inhibition of Kinase insert Domain containing Receptor (KDR); assay type: biochemical
# T2 construct: KDR; the catalytic domain of the VEGF receptor
# Procedure: In this standard pharmacological test procedure, KDR protein is mixed, in the presence or absence of a inhibitor compound, with a substrate peptide to be phosphorylated (a copolymer of glutamic acid and tyrosine, E:Y::4:1) and other cofacters such as Mg^++ and sodium vanadate (a protein tyrosine phosphatase inhibitor) in an appropriate buffer to maintain pH (7.2). ATP and a radioactive tracer (either P^32 - or P^33 -labeled ATP) is then add to initiate phosphorylation. After incubation, the radioactive phosphate associated with the acid-insoluble fraction of the assay mixture is then qualified as reflection of substrate phosphorylation.
# [5] = system: human epidermoid tumors (A431); assay: In vivo inhibition of the growth of human epidermoid tumors (A431) in mice; design: species or system human tumor in BALB/c nu/nu female mice
# Procedure: Representative compounds of this invention (listed below) were evaluated in an in vivo standard pharmacological test procedure which measured its ability to inhibit the growth of human epidermoid tumors. […] BALB/c nu/nu female mice (Charles River, Wilmington, Mass.) were used in this in vivo standard pharmacological test procedure. […] When tumors attained a mass of between 100 and 150 mg, the mice were randomized into treatment groups (day zero). Mice were treated IP once a day either on days 1, 5, and 9 or on days 1 through 10 post staging with doses of either 80, 40 or 20 mg/kg/dose of the compound to be evaluated in 0.2% Klucel. Control animals received no drug. Tumor mass was determined every 7 days [(length X width^2)/2] for 28 days post staging. Relative tumor growth (Mean tumor mass on days 7, 14, 21, and 28 divided by the mean tumor mass on day zero) is determined for each treatment group.
# SKBR3 = assay: Inhibition of cancer cell growth as measured by cell number; assay type: cell-based, human; conditions: SKBR3, 48 hours, Table 8
# Source text: as §1
# [6] = Table 10, 80 IP days 1, 5, 9, day 7
# [7] = Table 10, 80 IP days 1, 5, 9, day 14
# [8] = Table 10, 80 IP days 1, 5, 9, day 21
# [9] = Table 10, 80 IP days 1, 5, 9, day 28
# [10] = Table 10, 80 PO days 1-10, day 7
# [11] = Table 10, 80 PO days 1-10, day 14
# [12] = Table 10, 80 PO days 1-10, day 21
# [13] = Table 10, 80 PO days 1-10, day 28
# [14] = Table 11, 80 IP days 1, 5, 9, day 7
# [15] = Table 11, 80 IP days 1, 5, 9, day 14
# [16] = Table 11, 80 IP days 1, 5, 9, day 21
# [17] = Table 11, 80 IP days 1, 5, 9, day 28
# [18] = Table 11, 80 PO days 1-10, day 7
# [19] = Table 11, 80 PO days 1-10, day 14
# [20] = Table 11, 80 PO days 1-10, day 21
# [21] = Table 11, 80 PO days 1-10, day 28
# T2 sequence (P35968 834-1162 limits assumed): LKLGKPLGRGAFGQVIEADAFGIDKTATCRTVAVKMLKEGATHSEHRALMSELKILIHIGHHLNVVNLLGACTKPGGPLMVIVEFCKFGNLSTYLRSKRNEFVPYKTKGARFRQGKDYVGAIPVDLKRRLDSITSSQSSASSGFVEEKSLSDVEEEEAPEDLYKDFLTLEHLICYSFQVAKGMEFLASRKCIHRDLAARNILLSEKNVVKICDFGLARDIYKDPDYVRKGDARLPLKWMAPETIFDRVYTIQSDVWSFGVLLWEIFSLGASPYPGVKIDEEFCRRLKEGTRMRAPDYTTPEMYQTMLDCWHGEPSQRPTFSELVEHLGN
# T1 sequence (P00533 669-1210): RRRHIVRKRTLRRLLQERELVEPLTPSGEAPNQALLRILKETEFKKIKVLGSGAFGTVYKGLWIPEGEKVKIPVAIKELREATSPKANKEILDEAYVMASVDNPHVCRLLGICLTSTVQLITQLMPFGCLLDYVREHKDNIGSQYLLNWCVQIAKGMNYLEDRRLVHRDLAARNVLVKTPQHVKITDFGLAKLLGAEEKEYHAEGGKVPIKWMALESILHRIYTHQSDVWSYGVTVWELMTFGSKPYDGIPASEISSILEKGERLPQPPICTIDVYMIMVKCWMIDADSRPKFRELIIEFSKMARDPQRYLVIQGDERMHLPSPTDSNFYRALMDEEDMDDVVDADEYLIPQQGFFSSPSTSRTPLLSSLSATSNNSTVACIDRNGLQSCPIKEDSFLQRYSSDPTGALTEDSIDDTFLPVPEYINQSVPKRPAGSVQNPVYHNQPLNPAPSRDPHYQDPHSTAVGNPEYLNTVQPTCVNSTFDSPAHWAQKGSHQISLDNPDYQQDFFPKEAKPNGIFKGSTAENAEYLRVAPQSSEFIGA
# gastric (H^+ /K^+)-ATPase, sequence (P19156 2-1034 limits assumed): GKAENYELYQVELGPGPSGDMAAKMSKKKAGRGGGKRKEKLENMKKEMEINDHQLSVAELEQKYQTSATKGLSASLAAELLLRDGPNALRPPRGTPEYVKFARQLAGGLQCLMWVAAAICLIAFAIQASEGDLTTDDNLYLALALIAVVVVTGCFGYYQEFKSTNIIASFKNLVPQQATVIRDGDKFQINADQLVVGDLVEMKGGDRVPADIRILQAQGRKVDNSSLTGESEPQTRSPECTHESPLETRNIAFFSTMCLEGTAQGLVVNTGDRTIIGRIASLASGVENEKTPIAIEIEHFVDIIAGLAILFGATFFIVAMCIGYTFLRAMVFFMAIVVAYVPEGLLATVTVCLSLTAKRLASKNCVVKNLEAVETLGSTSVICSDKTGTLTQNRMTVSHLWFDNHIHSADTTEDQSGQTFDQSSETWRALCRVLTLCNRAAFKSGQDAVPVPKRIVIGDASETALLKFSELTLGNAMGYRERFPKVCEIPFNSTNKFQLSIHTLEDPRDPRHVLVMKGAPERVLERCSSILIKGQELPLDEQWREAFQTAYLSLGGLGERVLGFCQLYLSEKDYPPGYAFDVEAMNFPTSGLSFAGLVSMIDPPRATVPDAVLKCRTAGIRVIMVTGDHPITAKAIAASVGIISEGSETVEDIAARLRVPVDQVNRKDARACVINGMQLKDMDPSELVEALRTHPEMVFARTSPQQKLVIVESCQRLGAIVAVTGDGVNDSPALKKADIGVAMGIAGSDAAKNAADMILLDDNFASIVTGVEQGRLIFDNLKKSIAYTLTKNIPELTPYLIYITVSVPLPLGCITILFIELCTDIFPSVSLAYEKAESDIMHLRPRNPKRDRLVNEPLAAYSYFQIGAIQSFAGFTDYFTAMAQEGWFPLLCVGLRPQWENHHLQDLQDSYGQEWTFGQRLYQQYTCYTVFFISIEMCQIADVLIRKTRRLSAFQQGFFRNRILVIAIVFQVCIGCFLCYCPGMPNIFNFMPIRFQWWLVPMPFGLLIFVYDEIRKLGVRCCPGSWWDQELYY
# gastric (H^+ /K^+)-ATPase, sequence (P18434 whole entry partner): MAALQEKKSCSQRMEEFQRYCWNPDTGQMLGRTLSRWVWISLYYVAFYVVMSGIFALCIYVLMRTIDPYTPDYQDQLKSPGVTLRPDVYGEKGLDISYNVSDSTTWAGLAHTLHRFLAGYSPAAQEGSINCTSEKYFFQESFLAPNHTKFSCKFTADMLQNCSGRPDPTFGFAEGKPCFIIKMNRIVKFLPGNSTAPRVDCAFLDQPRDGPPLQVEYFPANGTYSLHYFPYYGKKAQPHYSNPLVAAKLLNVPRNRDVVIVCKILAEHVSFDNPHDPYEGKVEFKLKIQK
compound,measurement,setting,value
Cc1ccccc1Nc1c(C#N)cnc2ccccc12,gastric (H+/K+)-ATPase inhibitory activity,[1],inhibitory activity at high concentrations
"4-(3-Bromophenylamino)-6,7-di-methoxymethyl-3-quinolinecarbonitrile [Example 325]",pIC50,[2],< 4.00
"COc1cc2ncc(C#N)c(Nc3cccc(C#N)c3)c2cc1OC [Example 45, 4-[(3-Cyanophenyl)amino]-6,7-dimethoxy-3-quinolinecarbonitrile]",Inhibition of Cancer Cell Growth as Measured by Cell Number (IC50),HL60,> 1.00 µg/mL
"CN(C)CC=CC(=O)Nc1ccc2ncc(C#N)c(Nc3cccc(Br)c3)c2c1 [Example 99, 4-Dimethylamino-but-2-enoic acid [4-(3-bromo-phenylamino)-3-cyano-quinolin-6-yl]-amide]",pIC50,[3],7.52
"CCN(CC)CC=CC(=O)Nc1ccc2ncc(C#N)c(Nc3cccc(Br)c3)c2c1 [Example 100, 4-Diethylamino-but-2-enoic acid [4-(3-bromo-phenylamino)-3-cyano-quinolin-6-yl]-amide]",pIC50,[3],7.00
"C=CC(=O)Nc1cc(CN(C)C)c2ncc(C#N)c(Nc3cccc(Br)c3)c2c1 [Example 111, N-{4-[(3-Bromophenyl)amino]-3-cyano-8-dimethylaminomethyl-6-quinolinyl}-2-propenamide]",pIC50,[2],4.00
"C=CC(=O)Nc1ccc2ncc(C#N)c(Nc3cccc(C#N)c3)c2c1 [Example 160, N-{3-Cyano-4-[(3-cyanophenyl)amino]-6-quinolinyl}-2-propenamide]",KDR IC50,[4],30 µg/mL
"C=C(CN1CCOCC1)C(=O)Nc1ccc2ncc(C#N)c(Nc3cccc(Br)c3)c2c1 [Example 171, N-{4-[(3-Bromophenyl)amino]-3-cyano-6-quinolinyl}-2-morpholin-4-ylmethyl-2-propenamide]",pIC50,[2],4.00
"COc1cc2ncc(C#N)c(Nc3ccc(F)c(Cl)c3)c2cc1NC(=O)C=CCN(C)C [Example 203, 4-Dimethylamino-but-2-enoic acid [4-(3-chloro-4-fluoro-phenylamino)-3-cyano-7-methoxy-quinolin-6-yl]-amide]",% T/C,[5]; [6],20%
same,% T/C,[5]; [7],12%
same,% T/C,[5]; [8],14%
same,% T/C,[5]; [9],16%
same,% T/C,[5]; [10],15%
same,% T/C,[5]; [11],8%
same,% T/C,[5]; [12],12%
same,% T/C,[5]; [13],17%
same,Inhibition of Cancer Cell Growth as Measured by Cell Number (IC50),SKBR3,0.1 µg/mL
"CCN(CC)CC=CC(=O)Nc1cc2c(Nc3ccc(F)c(Cl)c3)c(C#N)cnc2cc1OC [Example 204, 4-Diethylamino-but-2-enoic acid [4-(3-chloro-4-fluoro-phenylamino)-3-cyano-7-methoxy-quinolin-6-yl]-amide]",% T/C,[5]; [6],45%
same,% T/C,[5]; [7],42%
same,% T/C,[5]; [8],55%
same,% T/C,[5]; [9],49%
same,% T/C,[5]; [10],25%
same,% T/C,[5]; [11],18%
same,% T/C,[5]; [12],43%
same,% T/C,[5]; [13],51%
"COc1cc2ncc(C#N)c(Nc3ccc(F)c(Cl)c3)c2cc1NC(=O)C=CCN1CCOCC1 [Example 205, 4-Morpholin-4-yl-but-2-enoic acid [4-(3-chloro-4-fluoro-phenylamino)-3-cyano-7-methoxy-quinolin-6-yl]-amide]",% T/C,[5]; [6],30%
same,% T/C,[5]; [7],25%
same,% T/C,[5]; [8],38%
same,% T/C,[5]; [9],61%
same,% T/C,[5]; [10],23%
same,% T/C,[5]; [11],19%
same,% T/C,[5]; [12],23%
same,% T/C,[5]; [13],29%
"COc1cc2ncc(C#N)c(Nc3ccc(F)c(Br)c3)c2cc1NC(=O)C=CCN(C)C [Example 208, 4-Dimethylamino-but-2-enoic acid [4-(3-bromo-4-fluoro-phenylamino)-3-cyano-7-methoxy-quinolin-6-yl]-amide]",% T/C,[5]; [14],14%
same,% T/C,[5]; [15],15%
same,% T/C,[5]; [16],26%
same,% T/C,[5]; [17],32%
same,% T/C,[5]; [18],6%
same,% T/C,[5]; [19],6%
same,% T/C,[5]; [20],8%
same,% T/C,[5]; [21],10%
"CCN(CC)CC=CC(=O)Nc1cc2c(Nc3ccc(F)c(Br)c3)c(C#N)cnc2cc1OC [Example 209, 4Diethylamino-but-2-enoic acid [4(3-bromo-4-fluoro-phenylamino)-3-cyano-7-methoxy-quinolin-6-yl]-amide]",KDR IC50,[4],30 µg/mL
"CCOc1cc2ncc(C#N)c(Nc3cccc(Br)c3)c2cc1NC(=O)C=CCN(C)C [Example 216, 4-Dimethylamino-but-2-enoic acid [4-(3-bromo-phenylamino)-3-cyano-7-ethoxy-quinolin-6-yl]-amide]",% T/C,[5]; [14],14%
same,% T/C,[5]; [15],12%
same,% T/C,[5]; [16],17%
same,% T/C,[5]; [17],19%
same,% T/C,[5]; [18],6%
same,% T/C,[5]; [19],6%
same,% T/C,[5]; [20],12%
same,% T/C,[5]; [21],21%
same,KDR IC50,[4],30 µg/mL
"CCOc1cc2ncc(C#N)c(Nc3cccc(Br)c3)c2cc1NC(=O)C=CCN(CC)CC [Example 217, 4-Diethylamino-but-2-enoic acid [4-(3-bromo-phenylamino)-3-cyano-7-ethoxy-quinolin-6-yl]-amide]",% T/C,[5]; [14],25%
same,% T/C,[5]; [15],36%
same,% T/C,[5]; [16],51%
same,% T/C,[5]; [17],56%
same,% T/C,[5]; [18],30%
same,% T/C,[5]; [19],33%
same,% T/C,[5]; [20],43%
same,% T/C,[5]; [21],42%
same,KDR IC50,[4],30 µg/mL
"COc1ccc(OC)c2c(Nc3ccc(Cl)cc3F)c(C#N)cnc12 [Example 238, 4-(4-Chloro-2-fluoro-phenylamino)-5.8-dimethoxyquinoline-3-carbonitrile]",pIC50,[2],< 4.00
"CCOc1cc2[nH]cc(C#N)c(=O)c2cc1OCC [Example 252, 1,4-Dihydroquinoline-6,7-diethoxy-4-oxo-3-carbonitrile]",pIC50,[2],4.00
"COc1ccc2ncc(C#N)c(Nc3ccc(Cl)cc3F)c2c1 [Example 283, 4-(4-Chloro-2-fluoro-phenylamino)-6-methoxy-quinoline-3-carbonitrile]",KDR IC50,[4],30 µg/mL
"COc1ccc2ncc(C#N)c(Nc3ccc(C)c(O)c3)c2c1 [Example 284, 4-(3-Hydroxy-4-methyl-phenylamino)-6-methoxy-quinoline-3-carbonitrile]",KDR IC50,[4],30 µg/mL
"CCCCOc1cc2ncc(C#N)c(Nc3cccc(Br)c3)c2cc1OCCCC [Example 305, 4(3-Bromophenylamino)-6,7-di-n-butoxy-3-quinolinecarbonitrile]",KDR IC50,[4],30 µg/mL
"COc1ccc2c(Nc3ccc(Cl)cc3F)c(C#N)cnc2c1 [Example 307, 4-(4-Chloro-2-fluorophenylamino)-7-methoxy-3-quinolinecarbonitrile]",KDR IC50,[4],30 µg/mL
"N#Cc1cnc2cc(O)ccc2c1Nc1ccc(Cl)cc1F [Example 308, 4-(4-Chloro-2-fluorophenylamino)-7-hydroxy-3-quinolinecarbonitrile]",KDR IC50,[4],30 µg/mL
"COCCOc1cc2ncc(C#N)c(Nc3cccc(Br)c3)c2cc1OCCOC [Example 311, 4-[(3-Bromophenyl)amino]-6,7-bis(2-methoxyethoxy)-3-quinolinecarbonitrile]",pIC50,[2],4.15
"COc1cc2ncc(C#N)c(Nc3cccc(C(C)=O)c3)c2cc1OC [Example 324, 4(3-acetylphenylamino)-6,7-dimethoxy-3-quinolinecarbonitrile]",pIC50,[2],4.00
